Laboratory results published in patent US7517658B2, “Methods for preparing compositions using a SNORF33 receptor” (H. Lundbeck A/S, priority 1999, dated 2009).

Legend:
Format in all cases: cell-based
rSNORF33 [1] = molecular target: T1, rSNORF33 (Rattus norvegicus, UniProt Q923Y9); test: Cl- currents in Xenopus oocytes expressing rSNORF33 and CFTR (voltage clamp); conditions: for EC50: oocytes expressing rSNORF33 and CFTR, -80 mV, mean ± S.E.M., read-out: Calculated EC50, Cl- current
Procedure: Female Xenopus laevis (Xenopus-1, Ann Arbor, Mich.) were anesthetized in 0.2% tricain (3-aminobenzoic acid ethyl ester, Sigma Chemical Corp.) and a portion of ovary was removed using aseptic technique (Quick and Lester, 1994). Oocytes were defolliculated, using 3 mg/ml collagenase (Worthington Biochemical Corp., Freehold, N.J.) in a solution containing 82.5 mM NaCl, 2 mM KCl, 1 mM MgCl2 and 5 mM HEPES, pH 7.5, and injected (Nanoject, Drummond Scientific, Broomall, Pa.) 24 h later with 50-70 nl of individual mRNAs or mRNA mixtures (see below).
Elevation of intracellular cAMP is monitored in oocytes by expression of the cystic fibrosis transmembrane conductance regulator (CFTR) whose Cl^−-selective pore opens in response to phosphorylation by protein kinase A (Riordan, 1993). To prepare RNA transcripts for expression in oocytes, a template was created by PCR using 5′ and 3′ primers derived from the published sequence of the CFTR gene (Riordan, 1993). The 5′ primer included the sequence coding for T7 polymerase so that transcripts could be generated directly from the PCR products without cloning. Oocytes were injected with 10 ng of CFTR mRNA in addition to 10-15 ng mRNA for SNORF33. Electrophysiological recordings were made after a 2-3 day incubation at 18° C.
Dual electrode voltage clamp (“GeneClamp”, Axon Instruments Inc., Foster City, Calif.) was performed using 3 M KCl-filled glass microelectrodes having resistances of 1-3 Mohms. Unless otherwise specified, oocytes were voltage clamped at a holding potential of −80 mV. During recordings, oocytes were bathed in continuously flowing (1-3 ml/min) medium containing 96 mM NaCl, 2 mM KCl, 1.8 mM CaCl2, 1 mM MgCl2, and 5 mM HEPES, pH 7.5 (ND96). […] Experiments were carried out at room temperature. All values are expressed as mean±standard error of the mean.

rSNORF33 [2] = molecular target: T1, rSNORF33; test: Intracellular cAMP release in rSNORF33-transfected COS-7 cells; set-up: expressed in transfected cells; host or cells: COS-7 (transient); conditions: transiently transfected COS-7 cells; 3–8 experiments; read-out: Mean EC50 ± S.E.M., stimulation of rSNORF33 measured by intracellular cAMP release
Procedure: (§1) The receptor-mediated stimulation or inhibition of cyclic AMP (cAMP) formation may be assayed in cells expressing the mammalian receptors. Cells are plated in 96-well plates or other vessels and preincubated in a buffer such as HEPES buffered saline (NaCl (150 mM), CaCl2 (1 mM), KCl (5 mM), glucose (10 mM)) supplemented with a phosphodiesterase inhibitor such as 5 mM theophylline, with or without protease inhibitor cocktail (For example, a typical inhibitor cocktail contains 2 μg/ml aprotinin, […] leupeptin, and 10 μg/ml phosphoramidon.) for 20 min at 37° C., in 5% CO2. Test compounds are added with or without […] forskolin and incubated for an additional 10 min at 37° C. The medium is then aspirated and the reaction stopped by the addition of 100 mM HCl or other methods. The plates are stored at 4° C. for 15 min, and the cAMP content in the stopping solution is measured by radioimmunoassay. Radioactivity may be quantified using a gamma counter equipped with data reduction software. Specific modifications may be performed to optimize the assay for the receptor or to alter the detection method of cAMP.
(§2) COS-7 cells were transiently transfected with rSNORF33 gene using the calcium phosphate method and plated in 96-well plates. 48 hours after transfection, cells were washed twice with Dulbecco's phosphate buffered saline (PBS) supplemented with 10 mM HEPES, 10 mM glucose, 5 mM theophylline and 10 μM pargyline and were incubated in the same buffer for 20 min at 37° C., in […] 5% CO2. Test compounds were added and cells were incubated for an additional 10 min at 37° C. The medium was then aspirated and the reaction stopped by the addition of 100 mM HCl. The plates were stored at −20° C. for 2-5 days. For cAMP measurement, plates were thawed and the cAMP content in each well was measured by radioimmunoassay cAMP Scintillation Proximity Assay (Amersham Pharmacia Biotech). Radioactivity was quantified using microbeta Trilux counter (Wallac).

hSNORF33 = molecular target: T2, hSNORF33 (Homo sapiens, UniProt Q96RJ0); test: Intracellular cAMP release in human SNORF33-transfected COS-7 cells; set-up: expressed in transfected cells; host or cells: COS-7 (transient); conditions: transiently transfected COS-7 cells; read-out: Mean EC50 ± S.D.M., stimulation of human SNORF33 measured by intracellular cAMP release
T2 sequence (Q96RJ0 1-339): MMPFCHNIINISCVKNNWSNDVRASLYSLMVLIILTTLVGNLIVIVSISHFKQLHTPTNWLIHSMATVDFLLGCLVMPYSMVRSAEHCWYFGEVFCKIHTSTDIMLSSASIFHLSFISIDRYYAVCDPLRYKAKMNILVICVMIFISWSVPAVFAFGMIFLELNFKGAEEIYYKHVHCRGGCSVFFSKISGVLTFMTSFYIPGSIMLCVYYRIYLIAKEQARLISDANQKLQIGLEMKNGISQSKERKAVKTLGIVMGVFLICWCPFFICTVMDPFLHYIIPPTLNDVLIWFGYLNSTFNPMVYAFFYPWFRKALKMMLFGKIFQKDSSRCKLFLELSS
Procedure: as §1, §2

T1 sequence (Q923Y9 whole entry): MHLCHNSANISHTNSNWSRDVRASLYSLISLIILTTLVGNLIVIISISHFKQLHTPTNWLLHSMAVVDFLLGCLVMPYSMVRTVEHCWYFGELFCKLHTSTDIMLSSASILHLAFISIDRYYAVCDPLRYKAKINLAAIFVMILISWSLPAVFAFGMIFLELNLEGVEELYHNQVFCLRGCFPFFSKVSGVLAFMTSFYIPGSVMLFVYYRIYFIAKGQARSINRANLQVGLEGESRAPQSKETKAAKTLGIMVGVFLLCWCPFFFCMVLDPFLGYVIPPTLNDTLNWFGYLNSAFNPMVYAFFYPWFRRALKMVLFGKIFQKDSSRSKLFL

| Cl- currents elicited (rSNORF33 [1]; at 100 μM) | SMILES | Cl- currents elicited (rSNORF33 [1]; 1-100 μM) | EC50 (rSNORF33 [1]) | EC50 (rSNORF33 [2]) | EC50 (hSNORF33) |
| --- | --- | --- | --- | --- | --- |
|  | NCCc1c[nH]c2ccccc12 [Tryptamine (T), Tryptamine] | produced this activity | 54 ± 10 nM | 17 ± 4 nM | 24000 nM |
|  | NCCc1ccc(O)cc1 [Tyramine (TYR), Tyramine] | produced this activity | 37 ± 4.4 nM | 9 ± 6 nM | 214 ± 85 nM |
| elicited Cl^− currents | NCC(O)c1ccc(O)cc1 (stereo not drawn) [Octopamine (OCT), Octopamine] |  | 635 ± 151 nM | 135 ± 54 nM | 4090 ± 95 nM |
